Experiments:
[1] = target: T1, 14-3-3ζ (14‐3‐3 isoform ζ) (Homo sapiens, UniProt P63104); experiment: biochemical; type: binding; conditions: ITC, T = 303.15 K, pH 7.4; mean value of 3 runs
T1 construct: 14-3-3ζ (aa 1-245) with remaining His-Tag; made in house
T1 sequence (P63104 1-245): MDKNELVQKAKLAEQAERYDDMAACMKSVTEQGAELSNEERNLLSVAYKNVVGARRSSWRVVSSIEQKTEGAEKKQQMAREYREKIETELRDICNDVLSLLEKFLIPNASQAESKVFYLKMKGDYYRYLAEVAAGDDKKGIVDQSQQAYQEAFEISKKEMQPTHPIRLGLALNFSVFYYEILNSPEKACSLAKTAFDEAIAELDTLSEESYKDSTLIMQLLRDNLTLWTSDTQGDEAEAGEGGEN

[2] = target: T1, 14-3-3ζ (14‐3‐3 isoform ζ); experiment: biochemical; type: binding; conditions: for koff: 19F NMR line shape analysis, slow exchange, 50 mM HEPES, 100 mM NaCl, 2 mM MgCl2, 1% DMSO, 10% D2O, pH 7.4, room temperature, error from fitting procedure (Equation S1), read-out: dissociation rate koff (NMR); for association rate kon = koff × Kd^-1 (Figure 2b) / kon: calculated from koff (19F NMR) and ITC-derived Kd; for kon: read-out: association rate kon = koff × Kd^-1

| SMILES | Kd [1] [nM] | koff [2] [s⁻¹] | association rate kon = koff × Kd^-1 (Figure 2b) [2] [s^-1M^-1 10^6] | kon [2] [M⁻¹ s⁻¹] |
| --- | --- | --- | --- | --- |
| CC(C)C[C@H](NC(=O)[C@H](CC(=O)O)NC(=O)[C@H](CC(C)C)NC(=O)[C@]1(C)CCCCCCCC[C@@](C)(NC(=O)CNC(=O)[C@H](CCC(N)=O)NC(=O)CNC(=O)C(F)(F)F)C(=O)N[C@@H](CC(C)C)C(=O)N[C@@H](CC(=O)O)C(=O)N1)C(=O)N[C@@H](C)C(=O)N[C@@H](CO)C(N)=O [MC18] | 362 | 1.58 | 4.38 ±0.47 | 4.38e+06 |
| CC(C)C[C@H](NC(=O)[C@H](CC(=O)O)NC(=O)[C@H](CC(C)C)NC(=O)[C@]1(C)CCCCCCCCCCCC[C@](C)(NC(=O)CNC(=O)[C@H](CCC(N)=O)NC(=O)CNC(=O)C(F)(F)F)C(=O)N[C@@H](CC(C)C)C(=O)N[C@@H](CC(=O)O)C(=O)N1)C(=O)N[C@@H](C)C(=O)N[C@@H](CO)C(N)=O [MC22] | 111 | 0.45 | 4.12 ±0.39 | 4.12e+06 |

— PMC5724689, “Increased Conformational Flexibility of a Macrocycle–Receptor Complex Contributes to Reduced Dissociation Rates” (Chemistry (Weinheim an Der Bergstrasse, Germany), 2017)
